Laboratory results published in ChEMBL document CHEMBL4411296, “Design and development of Isatin-triazole hydrazones as potential inhibitors of microtubule affinity-regulating kinase 4 for the therapeutic management of cell proliferation and metastasis” (Eur J Med Chem, 2019).

What was measured:
Format in all cases: functional
SN12C = assay: Growth inhibition of human SN12C cells assessed as cell growth at 10 uM after 48 hrs by sulforhodamine B assay relative to control; details: read-out: Activity
OVCAR-5 = assay: Growth inhibition of human OVCAR5 cells assessed as cell growth at 10 uM after 48 hrs by sulforhodamine B assay relative to control; details: OVCAR-5, 48 h, read-out: Activity
K562 = assay: Growth inhibition of human K562 cells assessed as cell growth at 10 uM after 48 hrs by sulforhodamine B assay relative to control; details: K562, 48 h, read-out: Activity
SK-MEL-2 = assay: Growth inhibition of human SK-MEL-2 cells assessed as cell growth at 10 uM after 48 hrs by sulforhodamine B assay relative to control; details: SK-MEL-2, 48 h, read-out: Activity
NCI-H226 = assay: Growth inhibition of human NCI-H226 cells assessed as cell growth at 10 uM after 48 hrs by sulforhodamine B assay relative to control; details: NCI-H226, 48 h, read-out: Activity
HOP-62 = assay: Growth inhibition of human HOP62 cells assessed as cell growth at 10 uM after 48 hrs by sulforhodamine B assay relative to control; details: HOP-62, 48 h, read-out: Activity
SNB-19 = assay: Growth inhibition of human SNB19 cells assessed as cell growth at 10 uM after 48 hrs by sulforhodamine B assay relative to control; details: SNB-19, 48 h, read-out: Activity
A549 = assay: Growth inhibition of human A549/ATCC cells assessed as cell growth at 10 uM after 48 hrs by sulforhodamine B assay relative to control; details: A549, 48 h, read-out: Activity
ACHN = assay: Growth inhibition of human ACHN cells assessed as cell growth at 10 uM after 48 hrs by sulforhodamine B assay relative to control; details: read-out: Activity
SK-MEL-28 = assay: Growth inhibition of human SK-MEL-28 cells assessed as cell growth at 10 uM after 48 hrs by sulforhodamine B assay relative to control; details: SK-MEL-28, 48 h, read-out: Activity
RXF 393 = assay: Growth inhibition of human RXF393 cells assessed as cell growth at 10 uM after 48 hrs by sulforhodamine B assay relative to control; details: RXF 393, 48 h, read-out: Activity
DU-145 = assay: Growth inhibition of human DU145 cells assessed as cell growth at 10 uM after 48 hrs by sulforhodamine B assay relative to control; details: DU-145, 48 h, read-out: Activity
OVCAR-4 = assay: Growth inhibition of human OVCAR4 cells assessed as cell growth at 10 uM after 48 hrs by sulforhodamine B assay relative to control; details: OVCAR-4, 48 h, read-out: Activity
SF-295 = assay: Growth inhibition of human SF295 cells assessed as cell growth at 10 uM after 48 hrs by sulforhodamine B assay relative to control; details: SF-295, 48 h, read-out: Activity
BT-549 = assay: Growth inhibition of human BT549 cells assessed as cell growth at 10 uM after 48 hrs by sulforhodamine B assay relative to control; details: BT-549, 48 h, read-out: Activity
786-0 = assay: Growth inhibition of human 786-0 cells assessed as cell growth at 10 uM after 48 hrs by sulforhodamine B assay relative to control; details: 786-0, 48 h, read-out: Activity
HOP-92 = assay: Growth inhibition of human HOP92 cells assessed as cell growth at 10 uM after 48 hrs by sulforhodamine B assay relative to control; details: HOP-92, 48 h, read-out: Activity
MOLT-4 = assay: Growth inhibition of human MOLT4 cells assessed as cell growth at 10 uM after 48 hrs by sulforhodamine B assay relative to control; details: MOLT-4, 48 h, read-out: Activity
HCC 2998 = assay: Growth inhibition of human HCC2998 cells assessed as cell growth at 10 uM after 48 hrs by sulforhodamine B assay relative to control; details: HCC 2998, 48 h, read-out: Activity
Malme-3M = assay: Growth inhibition of human MALME-3M cells assessed as cell growth at 10 uM after 48 hrs by sulforhodamine B assay relative to control; details: read-out: Activity
SNB-75 = assay: Growth inhibition of human SNB75 cells assessed as cell growth at 10 uM after 48 hrs by sulforhodamine B assay relative to control; details: SNB-75, 48 h, read-out: Activity
SR = assay: Growth inhibition of human SR cells assessed as cell growth at 10 uM after 48 hrs by sulforhodamine B assay relative to control; details: read-out: Activity
HL-60(TB) = assay: Growth inhibition of human HL-60(TB) cells assessed as cell growth at 10 uM after 48 hrs by sulforhodamine B assay relative to control; details: HL-60, 48 h, read-out: Activity
HCT-116 = assay: Growth inhibition of human HCT116 cells assessed as cell growth at 10 uM after 48 hrs by sulforhodamine B assay relative to control; details: HCT-116, 48 h, read-out: Activity
MDA-MB-468 = assay: Growth inhibition of human MDA-MB-468 cells assessed as cell growth at 10 uM after 48 hrs by sulforhodamine B assay relative to control; details: MDA-MB-468, 48 h, read-out: Activity
M14 = assay: Growth inhibition of human M14 cells assessed as cell growth at 10 uM after 48 hrs by sulforhodamine B assay relative to control; details: M14, 48 h, read-out: Activity
SF-268 = assay: Growth inhibition of human SF268 cells assessed as cell growth at 10 uM after 48 hrs by sulforhodamine B assay relative to control; details: SF-268, 48 h, read-out: Activity
EKVX = assay: Growth inhibition of human EKVX cells assessed as cell growth at 10 uM after 48 hrs by sulforhodamine B assay relative to control; details: read-out: Activity
OVCAR-3 = assay: Growth inhibition of human OVCAR3 cells assessed as cell growth at 10 uM after 48 hrs by sulforhodamine B assay relative to control; details: OVCAR-3, 48 h, read-out: Activity
CAKI-1 = assay: Growth inhibition of human Caki1 cells assessed as cell growth at 10 uM after 48 hrs by sulforhodamine B assay relative to control; details: CAKI-1, 48 h, read-out: Activity
UACC-257 = assay: Growth inhibition of human UACC257 cells assessed as cell growth at 10 uM after 48 hrs by sulforhodamine B assay relative to control; details: UACC-257, 48 h, read-out: Activity
SK-OV-3 = assay: Growth inhibition of human SKOV3 cells assessed as cell growth at 10 uM after 48 hrs by sulforhodamine B assay relative to control; details: SK-OV-3, 48 h, read-out: Activity
OVCAR-8 = assay: Growth inhibition of human OVCAR8 cells assessed as cell growth at 10 uM after 48 hrs by sulforhodamine B assay relative to control; details: OVCAR-8, 48 h, read-out: Activity
TK-10 = assay: Growth inhibition of human TK10 cells assessed as cell growth at 10 uM after 48 hrs by sulforhodamine B assay relative to control; details: TK-10, 48 h, read-out: Activity

COc1ccc(Cn2cc(C(=O)N/N=C3/C(=O)Nc4ccc(Br)cc43)nn2)cc1
growth at 10 µM (SN12C): 102%
growth at 10 µM (OVCAR-5): 106%
growth at 10 µM (K562): 88.1%
growth at 10 µM (SK-MEL-2): 98%
growth at 10 µM (NCI-H226): 97.5%
growth at 10 µM (HOP-62): 111%
growth at 10 µM (SNB-19): 97.3%
growth at 10 µM (A549): 95.1%
growth at 10 µM (ACHN): 110%
growth at 10 µM (SK-MEL-28): 116%
growth at 10 µM (RXF 393): 99.8%
growth at 10 µM (DU-145): 93.7%
growth at 10 µM (OVCAR-4): 105%
growth at 10 µM (SF-295): 95.8%
growth at 10 µM (BT-549): 111%
growth at 10 µM (786-0): 99.6%
growth at 10 µM (HOP-92): 114%
growth at 10 µM (MOLT-4): 80.6%
growth at 10 µM (HCC 2998): 98.5%
growth at 10 µM (Malme-3M): -89.9%
growth at 10 µM (SNB-75): 112%
growth at 10 µM (SR): 77.5%
growth at 10 µM (HL-60(TB)): 85.2%
growth at 10 µM (HCT-116): 77%
growth at 10 µM (MDA-MB-468): 96.8%
growth at 10 µM (M14): 111%
growth at 10 µM (SF-268): 94.1%
growth at 10 µM (EKVX): 106%
growth at 10 µM (OVCAR-3): 112%
growth at 10 µM (CAKI-1): 97.7%
growth at 10 µM (UACC-257): 102%
growth at 10 µM (SK-OV-3): 108%
growth at 10 µM (OVCAR-8): 99.2%
growth at 10 µM (TK-10): 97.6%
